Results from ChEMBL document CHEMBL1136102, “Synthesis and antibacterial activity of oxazolidinone containing sulphonyl group” (2003).
In brackets after ≈: the same amount, converted by molar mass.

How the values were obtained:
Assay type in all cases: functional
[1] = tested on: Streptococcus pneumoniae; assay: In vitro antibacterial activity against Streptococcus pneumoniae
[2] = tested on: Staphylococcus epidermidis; assay: In vitro antibacterial activity against Staphylococcus epidermidis
[3] = tested on: Staphylococcus hominis; assay: In vitro antibacterial activity against Staphylococcus hominis
[4] = tested on: Streptococcus; assay: In vitro antibacterial activity against Streptococcus
[5] = tested on: Staphylococcus aureus; assay: In vitro antibacterial activity against Staphylococcus aureus

| Compound | MIC [1] | MIC [2] | MIC [3] | MIC [4] | MIC [5] |
| --- | --- | --- | --- | --- | --- |
| CC(=O)NC[C@H]1CN(c2ccc(N3CCN(S(=O)(=O)c4cccc(NC(C)=O)c4)CC3)c(F)c2)C(=O)O1 | > 128 µg/mL | > 128 µg/mL | > 128 µg/mL | > 128 µg/mL | > 128 µg/mL |
| CC(=O)NC[C@H]1CN(c2ccc(N3CCN(S(=O)(=O)c4ccccc4[N+](=O)[O-])CC3)c(F)c2)C(=O)O1 | 8 µg/mL (≈ 15.3 µM) | 4 µg/mL (≈ 7.67 µM) |  | 8 µg/mL (≈ 15.3 µM) | 8 µg/mL (≈ 15.3 µM) |
| CC(=O)NC[C@H]1CN(c2ccc(N3CCN(S(=O)(=O)c4ccc(C)cc4)CC3)c(F)c2)C(=O)O1 | > 128 µg/mL | 4 µg/mL (≈ 8.15 µM) | 64 µg/mL (≈ 130 µM) | 128 µg/mL (≈ 261 µM) | 128 µg/mL (≈ 261 µM) |
| CC(=O)NC[C@H]1CN(c2ccc(N3CCOCC3)c(F)c2)C(=O)O1 [LINEZOLID] |  | 0.5 µg/mL (≈ 1.48 µM) | 1 µg/mL (≈ 2.96 µM) | 2 µg/mL (≈ 5.93 µM) |  |
| CC(=O)NC[C@H]1CN(c2ccc(N3CCN(S(=O)(=O)c4ccc(Br)cc4)CC3)c(F)c2)C(=O)O1 | > 128 µg/mL | 128 µg/mL (≈ 230 µM) | > 128 µg/mL | > 128 µg/mL | > 128 µg/mL |
| CC(=O)NC[C@H]1CN(c2ccc(N3CCN(S(=O)(=O)c4ccc(N)cc4)CC3)c(F)c2)C(=O)O1 | 16 µg/mL (≈ 32.6 µM) | 0.25 µg/mL (≈ 0.509 µM) | 0.25 µg/mL (≈ 0.509 µM) | 16 µg/mL (≈ 32.6 µM) | 16 µg/mL (≈ 32.6 µM) |
| CC(=O)NC[C@H]1CN(c2ccc(N3CCN(S(=O)(=O)c4ccc(NC(C)=O)cc4)CC3)c(F)c2)C(=O)O1 | 32 µg/mL (≈ 60 µM) | 1 µg/mL (≈ 1.87 µM) | 4 µg/mL (≈ 7.5 µM) | 32 µg/mL (≈ 60 µM) | 32 µg/mL (≈ 60 µM) |
| CC(=O)NC[C@H]1CN(c2ccc(N3CCN(S(=O)(=O)c4cccs4)CC3)c(F)c2)C(=O)O1 | 4 µg/mL (≈ 8.29 µM) | 4 µg/mL (≈ 8.29 µM) |  | 4 µg/mL (≈ 8.29 µM) | 16 µg/mL (≈ 33.2 µM) |
| CC(=O)NC[C@H]1CN(c2ccc(N3CCN(S(=O)(=O)c4ccc([N+](=O)[O-])cc4)CC3)c(F)c2)C(=O)O1 | 128 µg/mL (≈ 245 µM) | 8 µg/mL (≈ 15.3 µM) | 32 µg/mL (≈ 61.4 µM) | 128 µg/mL (≈ 245 µM) | 128 µg/mL (≈ 245 µM) |
| COc1ccc(S(=O)(=O)N2CCN(c3ccc(N4C[C@H](CNC(C)=O)OC4=O)cc3F)CC2)cc1 | 8 µg/mL (≈ 15.8 µM) | 0.5 µg/mL (≈ 0.987 µM) | 2 µg/mL (≈ 3.95 µM) | 16 µg/mL (≈ 31.6 µM) | 16 µg/mL (≈ 31.6 µM) |
| CC(=O)NC[C@H]1CN(c2ccc(N3CCN(S(=O)(=O)c4ccccc4NC(C)=O)CC3)c(F)c2)C(=O)O1 | > 64 µg/mL | > 64 µg/mL | > 64 µg/mL | > 64 µg/mL | > 64 µg/mL |

Continued by falling MIC [1], values first:

| MIC [1] | MIC [2] | MIC [3] | MIC [4] | MIC [5] | Compound |
| --- | --- | --- | --- | --- | --- |
| 2 µg/mL (≈ 4.83 µM) | 0.5 µg/mL (≈ 1.21 µM) | 2 µg/mL (≈ 4.83 µM) | 4 µg/mL (≈ 9.65 µM) | 4 µg/mL (≈ 9.65 µM) | CC(=O)NC[C@H]1CN(c2ccc(N3CCN(S(C)(=O)=O)CC3)c(F)c2)C(=O)O1 |
| 2 µg/mL (≈ 4.2 µM) | 0.25 µg/mL (≈ 0.525 µM) | 1 µg/mL (≈ 2.1 µM) | 4 µg/mL (≈ 8.39 µM) | 4 µg/mL (≈ 8.39 µM) | CC(=O)NC[C@H]1CN(c2ccc(N3CCN(S(=O)(=O)c4ccccc4)CC3)c(F)c2)C(=O)O1 |
| 2 µg/mL (≈ 4.07 µM) | 4 µg/mL (≈ 8.14 µM) |  | 2 µg/mL (≈ 4.07 µM) | 8 µg/mL (≈ 16.3 µM) | CC(=O)NC[C@H]1CN(c2ccc(N3CCN(S(=O)(=O)c4ccccc4N)CC3)c(F)c2)C(=O)O1 |
| 1 µg/mL (≈ 2.03 µM) | 0.25 µg/mL (≈ 0.509 µM) | 0.25 µg/mL (≈ 0.509 µM) | 1 µg/mL (≈ 2.03 µM) | 0.5 µg/mL (≈ 1.02 µM) | CC(=O)NC[C@H]1CN(c2ccc(N3CCN(S(=O)(=O)c4cccc(N)c4)CC3)c(F)c2)C(=O)O1 |
| 1 µg/mL (≈ 1.92 µM) | 0.25 µg/mL (≈ 0.479 µM) | 0.5 µg/mL (≈ 0.959 µM) | 4 µg/mL (≈ 7.67 µM) | 4 µg/mL (≈ 7.67 µM) | CC(=O)NC[C@H]1CN(c2ccc(N3CCN(S(=O)(=O)c4cccc([N+](=O)[O-])c4)CC3)c(F)c2)C(=O)O1 |
